Earlier results as cited in patent US10849867B2, “Methods and compositions for treating conditions associated with an abnormal inflammatory response” (First Wave Bio, Inc., priority 2015, dated 2020).

Settings: at 20° C.; cited from earlier work

## NCCO.O=C(Nc1ccc([N+](=O)[O-])cc1Cl)c1cc(Cl)ccc1O [ethanol amine salt, 5-chloro-N-(2-chloro-4-nitrophenyl)-2-hydroxybenzamide with 2-aminoethanol (1.1)]
  dissolves in distilled water: 180 to 280 mg/L
